Square brackets hold non-standard residues; d marks the D form. Side chains are listed from the residue outwards. Peptide text beside a SMILES is read from it. * marks the point of attachment. X2 = CC(C)CN(C[C@@H](O)[C@H](Cc1ccc(OCC(=O)*)cc1)NC(=O)O[C@H]1CCOC1)S(=O)(=O)c1ccc(N)cc1; X1 = NC(=O)C[C@H](NC(=O)OCc1ccccc1)C(=O)N[C@@H](Cc1ccccc1)[C@@H](O)CN1CCC[C@H]1C(=O)*; X3 = CC(C)(C)c1cc(OCC(=O)*)ccc1Sc1c(O)cc(-c2ccccc2)oc1=O; NMeLeu(3R-OH) = CN[C@H](C(=O)O)[C@H](O)C(C)C; NMeL = CN[C@@H](CC(C)C)C(=O)O; NMeV = CN[C@H](C(=O)O)C(C)C; dNMeS = CN[C@H](CO)C(=O)O; Abu = CC[C@H](N)C(=O)O
Columns and labels:
[1] = target: T1, HIV protease (Human immunodeficiency virus type 1 group M subtype B, UniProt P04585); test: Inhibition of HIV protease; assay type: biochemical; details: read-out: Ki against HIV protease
T1 construct: HIV protease is an aspartic protease that cleaves the immature viral protein gag-pol into mature structural proteins and enzymes

[2] = target: cyclophilin (Homo sapiens, UniProt P62937); test: Inhibition of cyclophilin; assay type: biochemical; details: read-out: Ki against cyclophilin
Sequence of cyclophilin (P62937 whole entry): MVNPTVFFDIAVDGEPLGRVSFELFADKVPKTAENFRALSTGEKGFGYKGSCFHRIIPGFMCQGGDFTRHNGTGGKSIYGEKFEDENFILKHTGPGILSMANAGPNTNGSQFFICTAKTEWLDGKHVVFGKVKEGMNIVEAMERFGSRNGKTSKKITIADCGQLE

[3] = test system: HIV-1; details: CEM cells, HIV-1, 6 days, XTT; quadruplicate runs
Protocol: The procedure used in the National Cancer Institute's test for agents active against human immunodeficiency virus (HIV) is designed to detect agents acting at any stage of the virus reproductive cycle. The assay basically involves the killing of T4 lymphocytes by HIV. Small amounts of HIV are added to cells, and two cycles of virus reproduction are necessary to obtain the required cell killing. Agents that interact with virions, cells, or virus gene-products to interfere with viral activities will protect cells from cytolysis. The system is automated in several features to accommodate large numbers of candidate agents and is generally designed to detect anti-HIV activity. However, compounds that degenerate or are rapidly metabolized in the culture conditions may not show activity in this screen. All tests are compared with at least one positive (e.g., AZT-treated) control done at the same time under identical conditions.
Candidate agent is dissolved in dimethyl sulfoxide (unless otherwise instructed) then diluted 1:100 in cell culture medium before preparing serial half-log10 dilutions. […]
Individual wells are analyzed spectrophotometrically to quantitate formazan production, and in addition are viewed microscopically for detection of viable cells and confirmation of protective activity. […]

[4] = test system: HIV; details: read-out: anti-HIV potency IC90; cited from earlier work
[5] = compared with DMP-323; cited from earlier work

Row | Compound | Ki [1] | Ki [2] | NCI determination of anti-HIV activity [3] | IC90 [4] | plasma concentrations [5]
1 | CC[C@@H]1NC(=O)[C@H]([C@H](O)C(C)C)N(C)C(=O)[C@H](C(C)C)N(C)C(=O)[C@H](CC(C)C)N(C)C(=O)[C@H](CC(C)C)N(C)C(=O)[C@@H](C)NC(=O)[C@H](CCCCNC(=O)[C@H](Cc2ccccc2)NC(=O)[C@@H](NC(=O)[C@@H]2CCCN2C[C@H](O)[C@H](Cc2ccccc2)NC(=O)[C@H](CC(N)=O)NC(=O)OCc2ccccc2)[C@@H](C)CC)NC(=O)[C@H](CC(C)C)N(C)C(=O)[C@H](C(C)C)NC(=O)[C@H](CC(C)C)N(C)C(=O)[C@@H](CO)N(C)C1=O [Compound 2.8] (cyclo([Abu][dNMeS][NMeL]V[NMeL]K([Phe-Ile-X1])[dA][NMeL][NMeL][NMeV][NMeLeu(3R-OH)])) | 1 nM | 20 nM | – | – | –
2 | CC[C@@H]1NC(=O)[C@H]([C@H](O)C(C)C)N(C)C(=O)[C@H](C(C)C)N(C)C(=O)[C@H](CC(C)C)N(C)C(=O)[C@H](CC(C)C)N(C)C(=O)[C@@H](C)NC(=O)[C@H](CCCCNC(=O)COc2ccc(C[C@H](NC(=O)O[C@H]3CCOC3)[C@H](O)CN(CC(C)C)S(=O)(=O)c3ccc(N)cc3)cc2)NC(=O)[C@H](CC(C)C)N(C)C(=O)[C@H](C(C)C)NC(=O)[C@H](CC(C)C)N(C)C(=O)[C@@H](CO)N(C)C1=O [Compound 2.10] (cyclo([NMeLeu(3R-OH)][Abu][dNMeS][NMeL]V[NMeL]K(X2)[dA][NMeL][NMeL][NMeV])) | 2.3 nM | 6 nM | confirmed active | – | –
3 | CC[C@@H]1NC(=O)[C@H]([C@H](O)C(C)C)N(C)C(=O)[C@H](C(C)C)N(C)C(=O)[C@H](CC(C)C)N(C)C(=O)[C@H](CC(C)C)N(C)C(=O)[C@@H](C)NC(=O)[C@H](CCCCNC(=O)COc2ccc(Sc3c(O)cc(-c4ccccc4)oc3=O)c(C(C)(C)C)c2)NC(=O)[C@H](CC(C)C)N(C)C(=O)[C@H](C(C)C)NC(=O)[C@H](CC(C)C)N(C)C(=O)[C@@H](CO)N(C)C1=O [Compound 2.9] (cyclo([Abu][dNMeS][NMeL]V[NMeL]K(X3)[dA][NMeL][NMeL][NMeV][NMeLeu(3R-OH)])) | 3.4 nM | 9.3 nM | – | – | –
4 | O=C(Nc1nc2ccccc2[nH]1)c1cccc(CN2C(=O)N(Cc3cccc(C(=O)Nc4nc5ccccc5[nH]4)c3)[C@H](Cc3ccccc3)[C@H](O)[C@@H](O)[C@H]2Cc2ccccc2)c1 [SD-146] | – | – | – | 5.1 nM | –
5 | Nc1cccc(CN2C(=O)N(Cc3cccc(N)c3)[C@H](Cc3ccccc3)[C@H](O)[C@@H](O)[C@H]2Cc2ccccc2)c1 [DMP-450] | – | – | – | – | much higher plasma concentrations

From patent US6270957A, “Non-Imuunosuppressive cyclosporins and their use in the prevention and treatment of HIV infection” (Wisconsin Alumni Research Foundation, priority 1999, dated 2001)
